# In patent US8318697B2, “Prophylactic and therapeutic treatment of infectious and other diseases with mono- and disaccharide-based compounds” (Corixa Corporation, priority 2000, dated 2012):
# Read-outs that look alike come from different tables or passages of the source.
# How the values were obtained:
# [1] = system: human PBMCs; assay: Lineage specific cell surface activation markers in human PBMCs; type: cell-based; conditions: LPS 10 ng/ml, RC-526 or RC-527 10 μg/ml
# Description: This experiment describes lineage specific cell surface activation markers in human PBMCs activated with LPS or selected AGPs. PBMCs were harvested from a normal donor and plated at 1×10^7 cells/well in a […] (6 well plate) with 3 ml RPMI. LPS (10 ng/ml), RC-526 (10 μg/ml) or RC-527 (10 μg/ml) were added to each of 4 wells. Cells were harvested from each of 2 wells at 4 hr and 24 hr following activation and immediately stained for the lineage and cell surface activation markers.
# [2] = system: human whole blood; type: cell-based; conditions: for IL10/TNFα cba: ratio of IL-10 to TNF; for TNFα/IL10 cba: ratio of TNF to IL-10
# [3] = system: influenza A/HK/68; assay: Lethal influenza challenge model, intranasal monotherapy; conditions: i.n.; for protection against influenza challenge, compared by secondary fatty acid chains: FIG. 11, FIG. 13
# Description: A dose of 20 μg MonoPhosphoryl Lipid A (MPL) was given to groups of female BALB/c mice by intranasal (i.n.) administration either 2 days prior to or the day of lethal influenza challenge. All mice were challenged with approximately 2 LD50 infectious influenza A/HK/68 administered i.n. Mortality was monitored for 21 days following influenza challenge.
# A dose of 20 μg L-Seryl AGPs (RC-526, RC-554, RC-555, RC-537, RC-527, RC-538, RC-560, RC-512 and vehicle only) was given to groups of female BALB/c mice by intranasal (i.n.) administration 2 days prior to or the day of lethal influenza challenge. All mice were challenged with approximately 2 LD50 infectious influenza A/HK/68 administered i.n. The disease index (ruffled fur, hunched posture and labored breathing) was monitored during days 4-19 following influenza challenge. Weight loss and mortality were monitored for 21 days following influenza challenge.
# [4] = system: Ogawa P. gingivalis LPS stimulated whole blood cells; assay: Inhibition of LPS-induced cytokines in whole blood; type: cell-based, human; conditions: 10, 5, 2.5 ug/mL
# Excerpt: Table 4 provides the maximum levels of IL-4, IL-2 and IL-5 obtained, as well as ratios of TNF to IL-10, and ratios of IL-10 to TNF. Inhibition data for IL-8, reported as a percentage, are also provided on the right hand side of Table 4. For example, 90% inhibition would calculate to a 90% reduction of cytokine levels. MIP-1β results were similar. […]
# [5] = system: L. monocytogenes 10403 serotype; assay: Murine Listeria monocytogenes challenge model; type: in vivo, Mice; conditions: 1 μg intravenously in 0.2% TEOA, challenge two days later; FIGS. 14-17
# Description: This example provides experiments evaluating the induction of non-specific resistance in the murine Listeria monocytogenes challenge model performed using various AGPs and MPL. Mice (5 per group) were treated intravenously with the 1 μg of an AGP or MPL solubilized in 0.2% TEOA. Two days later the mice were challenged intravenously with a ˜10^5 L. monocytogenes 10403 serotype (provided by M. L. Gray, Montana State University, Bozeman, Mont.). Two days after the challenge, the mice were sacrificed and the number of colony forming units (CFUs) in the spleens of individual mice were determined by plating 10-fold serial dilutions of splenic homogenates on tryptic soy agar plates. The degree of protection afforded by a given AGP or MPL was calculated by subtracting the average number of bacteria per spleen (log 10 value) in the group of mice treated with a given compound, from the average number of bacteria per spleen (log 10 value) in a control group that was “sham” treated with vehicle (0.2% TEOA) prior to challenge with L. monocytogenes.
structure (smiles),measurement,setting,value
CCCCCCCCCCC[C@H](CC(=O)N[C@H]1[C@H](OC[C@H](NC(=O)C[C@@H](CCCCCCCCCCC)OC(=O)CCCCC)C(=O)O)O[C@H](CO)[C@@H](OP(=O)(O)O)[C@@H]1OC(=O)C[C@@H](CCCCCCCCCCC)OC(=O)CCCCC)OC(=O)CCCCC.CCN(CC)CC [RC-526],CD3+ CD69+ percent expression in NK-Cells (CD56+),[1]; 4 hr activation,1%
same,CD25+ percent expression in B-cells (CD19+),[1]; 4 hr activation,0%
same,CD25+ percent expression in Mono/Macs (CD14+),[1]; 4 hr activation,1%
same,CD69+ percent expression in B-cells (CD19+),[1]; 4 hr activation,11%
same,CD69+ percent expression in Mono/Macs (CD14+),[1]; 4 hr activation,1%
same,CD69+ percent expression in NK-Cells (CD56+),[1]; 4 hr activation,4%
same,CD69+ percent expression in T-cells (CD3+),[1]; 4 hr activation,1%
same,CD86+ percent expression in B-cells (CD19+),[1]; 4 hr activation,4%
same,CD95+ percent expression in B-cells (CD19+),[1]; 4 hr activation,6%
same,MFI CD11b+ in Mono/Macs (CD14+),[1]; 4 hr activation,2154
same,MFI CD54+ (ICAM-1) in B-cells (CD19+),[1]; 4 hr activation,55
same,MFI CD54+(ICAM-1) in Mono/Macs (CD14+),[1]; 4 hr activation,502
same,TLR2+ percent expression in Mono/Macs (CD14+),[1]; 4 hr activation,93%
same,CD3+ CD69+ percent expression in NK-Cells (CD56+),[1]; 24 hr activation,2%
same,CD14+ CD25+ percent expression in Mono/Macs (CD14+),[1]; 24 hr activation,1%
same,CD14+ CD69+ percent expression in Mono/Macs (CD14+),[1]; 24 hr activation,2%
same,CD14+ TLR2+ percent expression in Mono/Macs (CD14+),[1]; 24 hr activation,79%
same,CD19+ CD25+ percent expression in B-Cells (CD19+),[1]; 24 hr activation,9%
same,CD19+ CD69+ percent expression in B-Cells (CD19+),[1]; 24 hr activation,22%
same,CD19+ CD86+ percent expression in B-Cells (CD19+),[1]; 24 hr activation,22%
same,CD19+ CD95+ percent expression in B-Cells (CD19+),[1]; 24 hr activation,15%
same,CD69+ percent expression in NK-Cells (CD56+),[1]; 24 hr activation,4%
same,CD69+ percent expression in T-cells (CD3+),[1]; 24 hr activation,2%
same,MFI CD11b+ in Mono/Macs (CD14+),[1]; 24 hr activation,1986
same,MFI CD54+ (ICAM-1) in B-cells (CD19+),[1]; 24 hr activation,118
same,MFI CD54+(ICAM-1) in Mono/Macs (CD14+),[1]; 24 hr activation,1590
same,IL-1β cba2,[2]; donor 1,256
same,IL10/TNFα cba,[2]; donor 2,1.2
same,TNFα/IL10 cba,[2]; donor 2,0.9
same,cytokine stimulation in human whole blood cultures,[2]; overnight culture,little if any cytokine stimulation
same,protection against influenza challenge over dose range,"[3]; doses up to 40 μg, FIG. 12",no difference in protection up to doses of 40 μg
same,% inhib. LPS IL-8,[4],99%
CCCCCCCCCCC[C@H](CC(=O)N[C@H]1[C@H](OC[C@H](NC(=O)C[C@@H](CCCCCCCCCCC)OC(=O)CCCCC)C(=O)O)O[C@H](CO)[C@@H](OP(=O)(O)O)[C@@H]1OC(=O)C[C@@H](CCCCCCCCCCC)OC(=O)CCCCCCCCC)OC(=O)CCCCCCCCC.CCN(CC)CC [RC-569],"protection against influenza challenge, compared by secondary fatty acid chains",[3],more protective than those having fewer
same,% inhib. LPS IL-8,[4],−13%
CCCCCCCCCCC[C@H](CC(=O)NCCO[C@@H]1O[C@H](CO)[C@@H](OP(=O)(O)O)[C@H](OC(=O)C[C@@H](CCCCCCCCCCC)OC(=O)CCCCCCCCC)[C@H]1NC(=O)C[C@@H](CCCCCCCCCCC)OC(=O)CCCCCCCCC)OC(=O)CCCCCCCCC.CCN(CC)CC [RC-524],IL10/TNFα cba,[2]; donor 1,1.8
same,TNFα/IL10 cba,[2]; donor 1,0.2
same,IL10/TNFα cba,[2]; donor 2,4
same,TNFα/IL10 cba,[2]; donor 2,0.3
same,protection against L. monocytogenes challenge (reduction of log 10 bacteria per spleen vs vehicle),[5],protection that was equal to or greater than that provided by MPL
CCCCCCCCCCC[C@H](CC(=O)N[C@H]1[C@H](OC[C@H](NC(=O)C[C@@H](CCCCCCCCCCC)OC(=O)CCCCCCCCC)C(=O)O)O[C@H](CO)[C@@H](OP(=O)(O)O)[C@@H]1OC(=O)C[C@@H](CCCCCCCCCCC)OC(=O)CCCCCCCCC)OC(=O)CCCCC.CCN(CC)CC [RC-565],"protection against influenza challenge, compared by secondary fatty acid chains",[3],more protective than those having fewer
same,% inhib. LPS IL-8,[4],16%
